Test results from ChEMBL document CHEMBL4732261, “Design and synthesis of novel (S)-Naproxen hydrazide-hydrazones as potent VEGFR-2 inhibitors and their evaluation in vitro/in vivo breast cancer models” (Bioorg Med Chem, 2021).
Calls of active or inactive are those of the source. The calls are words filed in the database; no cut-off is given here.

Legend:
[1] = system: MDA-MB-231; assay: Cytotoxicity against human MDA-MB-231 cells assessed as reduction in cell viability after 48 hrs by MTT assay; assay type: functional, cell-based; conditions: MDA-MB-231, 48 h
[2] = system: MCF7; assay: Cytotoxicity against human MCF7 cells assessed as reduction in cell viability after 48 hrs by MTT assay; assay type: functional, cell-based; conditions: MCF7, 48 h
[3] = system: MDA-MB-231; assay: Down regulation of VEGFR2 in human MDA-MB-231 cells at IC50 concentration after 48 hrs by Western blot analysis; assay type: functional, cell-based
[4] = system: MDA-MB-231; assay: Induction of apoptosis in human MDA-MB-231 cells assessed as decrease in Bcl2 protein expression at IC50 concentration after 48 hrs by Western blot analysis; assay type: functional, cell-based
[5] = system: MDA-MB-231; assay: Cytotoxicity against human MDA-MB-231 cells assessed as reduction in cell viability at 25 to 400 uM after 48 hrs by MTT assay; assay type: functional, cell-based; conditions: dose 25-400 µM
[6] = system: HEK293; assay: Cytotoxicity against HEK293 cells assessed as reduction in cell viability after 48 hrs by MTT assay; assay type: cell-based; conditions: Homo sapiens, HEK293, 48 h
[7] = Cytotoxicity against human OSE cells assessed as reduction in cell viability after 48 hrs by MTT assay; assay type: cell-based; conditions: HOSE
[8] = system: MDA-MB-231; assay: Induction of cell cycle arrest in human MDA-MB-231 cells assessed as increase in accumulation of cells at S phase at 12.5 to 50 uM after 24 hrs by propidium iodide staining base flow cytometric analysis relative to control; assay type: functional; conditions: dose 12.5-50 µM
[9] = system: MDA-MB-231; assay: Induction of cell cycle arrest in human MDA-MB-231 cells assessed as increase in accumulation of cells at M phase at 12.5 to 50 uM after 24 hrs by propidium iodide staining base flow cytometric analysis; assay type: functional, cell-based; conditions: dose 12.5-50 µM
[10] = system: MDA-MB-231; assay: Induction of cell cycle arrest in human MDA-MB-231 cells assessed as decrease in accumulation of cells at G0/G1 phase after 24 hrs by propidium iodide staining base flow cytometric analysis; assay type: functional, cell-based; conditions: dose 12.5-50 µM
[11] = system: MDA-MB-231; assay: Induction of cell cycle arrest in human MDA-MB-231 cells assessed as accumulation of cells at G0/G1 phase at 50 uM after 24 hrs by propidium iodide staining base flow cytometric analysis (reference value: 73.2%); assay type: functional
[12] = system: MDA-MB-231; assay: Induction of cell cycle arrest in human MDA-MB-231 cells assessed as accumulation of cells at G2M phase at 12.5 to 50 uM after 24 hrs by propidium iodide staining base flow cytometric analysis relative to control; assay type: functional; conditions: dose 12.5-50 µM
[13] = system: MDA-MB-231; assay: Induction of morphological changes in human MDA-MB-231 cells assessed as nuclear condensation at IC50 concentration after 48 hrs by DAPI staining based fluorescent microscopic analysis; assay type: functional, cell-based
[14] = system: MDA-MB-231; assay: Induction of morphological changes in human MDA-MB-231 cells assessed as DNA fragmentation at IC50 concentration after 48 hrs by DAPI staining based fluorescent microscopic analysis; assay type: functional, cell-based
[15] = Toxicity in Balb/C mouse assessed as mortality at 30 to 120 mg/kg after 24 hrs; assay type: organism-based; conditions: in vivo, dose 30-120 mg/kg
[16] = Toxicity in Balb/C mouse implanted with EAC cells assessed as mortality at 60 to 120 mg/kg after 14 days; assay type: organism-based; conditions: in vivo, 336 h, dose 60-120 mg/kg, time 14 day
[17] = system: Ehrlich; assay: Antitumour activity against mouse EAC cells implanted in Balb/C mouse assessed as reduction in tumour volume at 60 to 120 mg/kg after 14 days; assay type: functional, organism-based; conditions: dose 60-120 mg/kg, time 14.0 day

| Structure (SMILES) | IC50 [1] | IC50 [2] | also measured |
| --- | --- | --- | --- |
| COc1ccc2cc([C@H](C)C(=O)N/N=C/c3c(F)cccc3F)ccc2c1 | 132 µM | 91.2 µM | – |
| COc1ccc2cc([C@H](C)C(=O)N/N=C/c3ccc(OC(F)(F)F)cc3)ccc2c1 | 79.5 µM | > 400 µM | – |
| COc1ccc2cc([C@H](C)C(=O)N/N=C/c3ccc(C(F)(F)F)cc3)ccc2c1 | 67 µM | 147 µM | – |
| COc1cccc2c1C(=O)c1c(O)c3c(c(O)c1C2=O)C[C@@](O)(C(=O)CO)C[C@@H]3O[C@H]1C[C@H](N)[C@H](O)[C@H](C)O1 [DOXORUBICIN] | 0.06 µM | – | Activity [3]: Active; Activity [4]: Active |
| CCc1ccc(/C=N/NC(=O)[C@@H](C)c2ccc3cc(OC)ccc3c2)o1 | 178 µM | 260 µM | – |
| COc1ccc2cc([C@H](C)C(=O)N/N=C/c3ccc(C#N)cc3)ccc2c1 | 389 µM | 60.9 µM | – |
| COc1ccc2cc([C@H](C)C(=O)N/N=C/c3cccc(OC(F)(F)F)c3)ccc2c1 | 157 µM | > 400 µM | – |
| COc1ccc2cc([C@H](C)C(=O)N/N=C/c3ccc([N+](=O)[O-])o3)ccc2c1 | > 400 µM | 41.8 µM | – |
| COc1ccc2cc([C@H](C)C(=O)N/N=C/c3ccccc3OC(F)(F)F)ccc2c1 | 22.4 µM | 59.8 µM | Activity [5]: Active; IC50 [6]: 162 µM; IC50 [7]: 49 µM; Activity [3]: Active; Activity [4]: Active; Activity [8]: 12.3%; Activity [9]: Active; Activity [10]: Dose-dependent effect; Activity [11]: 18.2%; Activity [12]: 14.5%; Activity [13]: Active; Activity [14]: Active; Activity [15]: Non-Toxic; Activity [16]: Non-Toxic; Activity [17]: Active |
| COc1ccc2cc([C@H](C)C(=O)N/N=C/c3cccc(C(F)(F)F)c3)ccc2c1 | 55.5 µM | 69.4 µM | – |
| COc1ccc2cc([C@H](C)C(=O)N/N=C/c3cccn3C)ccc2c1 | 129 µM | 352 µM | – |
| COc1ccc2cc([C@H](C)C(=O)N/N=C/c3cc(Br)cs3)ccc2c1 | 183 µM | > 400 µM | – |
| COc1ccc2cc([C@H](C)C(=O)N/N=C/c3cc(C(F)(F)F)cc(C(F)(F)F)c3)ccc2c1 | 353 µM | 185 µM | – |
| COc1ccc2cc([C@H](C)C(=O)O)ccc2c1 [NAPROXEN] | > 400 µM | > 400 µM | Activity [13]: inactive; Activity [14]: inactive |
